# T1: Organic cation/carnitine transporter 2 (Rattus norvegicus, UniProt O70594)
# T1 sequence (O70594 whole entry): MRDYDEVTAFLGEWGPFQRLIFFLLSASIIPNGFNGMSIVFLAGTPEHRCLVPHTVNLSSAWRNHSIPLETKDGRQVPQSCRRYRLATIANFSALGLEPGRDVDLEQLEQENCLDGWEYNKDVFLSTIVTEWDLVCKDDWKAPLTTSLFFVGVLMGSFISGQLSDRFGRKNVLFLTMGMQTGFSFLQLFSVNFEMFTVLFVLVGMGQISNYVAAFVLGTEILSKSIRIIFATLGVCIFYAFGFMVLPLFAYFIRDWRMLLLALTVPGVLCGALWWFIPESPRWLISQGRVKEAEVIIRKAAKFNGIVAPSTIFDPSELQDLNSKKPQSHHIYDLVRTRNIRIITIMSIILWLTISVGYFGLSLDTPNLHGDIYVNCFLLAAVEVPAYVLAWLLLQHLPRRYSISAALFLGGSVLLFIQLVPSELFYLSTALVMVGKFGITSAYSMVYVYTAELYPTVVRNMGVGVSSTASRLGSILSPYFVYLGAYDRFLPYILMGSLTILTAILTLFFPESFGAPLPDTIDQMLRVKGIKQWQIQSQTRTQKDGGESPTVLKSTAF
# T2: OCTN2 (organic cation/carnitine transporter 2) (Homo sapiens, UniProt O76082)
# T2 sequence (O76082 whole entry): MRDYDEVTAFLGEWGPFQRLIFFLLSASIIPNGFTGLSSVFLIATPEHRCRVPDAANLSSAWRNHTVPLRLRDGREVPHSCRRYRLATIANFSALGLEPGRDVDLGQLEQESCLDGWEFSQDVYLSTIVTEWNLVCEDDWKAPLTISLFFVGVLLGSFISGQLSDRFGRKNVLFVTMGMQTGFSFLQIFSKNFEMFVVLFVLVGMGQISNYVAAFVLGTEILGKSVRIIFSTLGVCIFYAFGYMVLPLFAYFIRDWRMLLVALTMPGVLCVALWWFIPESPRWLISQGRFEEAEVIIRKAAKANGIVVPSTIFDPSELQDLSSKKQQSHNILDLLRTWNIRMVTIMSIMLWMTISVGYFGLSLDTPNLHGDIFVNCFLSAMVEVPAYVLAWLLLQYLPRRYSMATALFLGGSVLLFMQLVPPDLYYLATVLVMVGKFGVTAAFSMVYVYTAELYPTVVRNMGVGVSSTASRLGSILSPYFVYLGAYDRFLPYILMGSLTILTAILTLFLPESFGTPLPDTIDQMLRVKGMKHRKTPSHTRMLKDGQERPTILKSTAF
# T3: OCTN2 (organic cation/carnitine transporter 2) (Rattus norvegicus, UniProt O70594)
# T3 sequence (O70594 whole entry): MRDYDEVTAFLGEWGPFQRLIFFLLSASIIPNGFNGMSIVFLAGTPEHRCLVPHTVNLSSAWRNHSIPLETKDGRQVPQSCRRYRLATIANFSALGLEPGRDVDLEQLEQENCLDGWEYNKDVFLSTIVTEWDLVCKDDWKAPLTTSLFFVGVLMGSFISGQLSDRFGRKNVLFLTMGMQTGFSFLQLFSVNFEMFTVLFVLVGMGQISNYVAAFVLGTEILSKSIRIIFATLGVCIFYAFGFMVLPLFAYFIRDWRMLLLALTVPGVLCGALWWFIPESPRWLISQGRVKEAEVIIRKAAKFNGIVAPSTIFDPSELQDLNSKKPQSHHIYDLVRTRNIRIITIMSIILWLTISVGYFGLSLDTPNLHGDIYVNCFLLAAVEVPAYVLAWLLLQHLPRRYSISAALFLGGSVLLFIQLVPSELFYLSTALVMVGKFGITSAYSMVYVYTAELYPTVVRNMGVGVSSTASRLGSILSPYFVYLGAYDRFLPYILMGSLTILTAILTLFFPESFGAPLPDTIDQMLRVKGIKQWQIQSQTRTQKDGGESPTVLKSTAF
# T4: Organic cation/carnitine transporter 2 (Homo sapiens, UniProt O76082)
# T4 sequence (O76082 whole entry): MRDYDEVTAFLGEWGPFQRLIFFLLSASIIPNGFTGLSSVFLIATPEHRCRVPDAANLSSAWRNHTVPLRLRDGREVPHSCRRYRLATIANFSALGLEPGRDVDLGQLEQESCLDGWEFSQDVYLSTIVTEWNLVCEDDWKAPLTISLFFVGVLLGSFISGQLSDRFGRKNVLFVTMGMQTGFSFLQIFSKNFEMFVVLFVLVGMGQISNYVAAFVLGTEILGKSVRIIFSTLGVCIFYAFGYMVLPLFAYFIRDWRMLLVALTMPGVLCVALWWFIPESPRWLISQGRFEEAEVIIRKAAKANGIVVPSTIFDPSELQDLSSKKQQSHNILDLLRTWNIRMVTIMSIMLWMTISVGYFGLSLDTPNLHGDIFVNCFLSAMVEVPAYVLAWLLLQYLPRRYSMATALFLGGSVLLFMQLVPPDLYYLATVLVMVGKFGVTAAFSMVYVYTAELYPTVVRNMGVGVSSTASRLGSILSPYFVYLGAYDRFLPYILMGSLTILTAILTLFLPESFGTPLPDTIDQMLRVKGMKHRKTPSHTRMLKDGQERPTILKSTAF
# Legend:
# [1] = target: T1, Organic cation/carnitine transporter 2; experiment: TP_TRANSPORTER: inhibition of TEA uptake (TEA: 20 uM, MPTP: 2500 uM) in OCTN2-expressing HRPE cells; type: functional, cell-based; settings: human
# [2] = target: T2, OCTN2 (organic cation/carnitine transporter 2); experiment: (§1) TP_TRANSPORTER: inhibition of Carnitine uptake (Carnitine: 0.025 uM, MPTP: 2000 uM) in OCTN2-expressing HRPE cells; type: functional, cell-based; set-up: scale not given: the % may be the effect or the level left; settings: HRPE cells expressing OCTN2, probe carnitine (0.025 uM), read-out: Activity
# [3] = target: T3, OCTN2 (organic cation/carnitine transporter 2); experiment: as §1; type: functional, cell-based; set-up: scale not given: the % may be the effect or the level left; settings: human, HRPE cells expressing OCTN2, probe carnitine (0.025 uM); read-out: Activity
# [4] = target: T1, Organic cation/carnitine transporter 2; experiment: TP_TRANSPORTER: inhibition of TEA uptake (TEA: 20 uM, MPP+: 2500 uM) in OCTN2-expressing HRPE cells; type: functional, cell-based; settings: human
# [5] = target: T1, Organic cation/carnitine transporter 2; experiment: (§2) TP_TRANSPORTER: uptake in OCTN2-expressing HRPE cells; type: functional, cell-based; settings: human
# [6] = target: T3, OCTN2 (organic cation/carnitine transporter 2); experiment: TP_TRANSPORTER: inhibition of Carnitine uptake (Carnitine: 0.025 uM, Acetyl-L-carnitine: 500 uM) in OCTN2-expressing HRPE cells; type: functional, cell-based; set-up: scale not given: the % may be the effect or the level left; settings: human, HRPE cells expressing OCTN2, probe carnitine (0.025 uM); read-out: Activity
# [7] = target: T1, Organic cation/carnitine transporter 2; experiment: TP_TRANSPORTER: inhibition of TEA uptake (TEA: 20 uM, Amphetamine: 2500 uM) in OCTN2-expressing HRPE cells; type: functional, cell-based; settings: human
# [8] = target: T3, OCTN2 (organic cation/carnitine transporter 2); experiment: TP_TRANSPORTER: inhibition of Carnitine uptake (Carnitine: 0.025 uM, Betaine: 500 uM) in OCTN2-expressing HRPE cells; type: functional, cell-based; set-up: scale not given: the % may be the effect or the level left; settings: human, HRPE cells expressing OCTN2, probe carnitine (0.025 uM); read-out: Activity
# [9] = target: T2, OCTN2 (organic cation/carnitine transporter 2); experiment: in vitro; settings: HRPE cells expressing OCTN2, probe carnitine (0.025 uM)
# Description: (§3) TP_TRANSPORTER: inhibition of Carnitine uptake (Carnitine: 0.025 uM, Choline: 2000 uM) in OCTN2-expressing HRPE cells
# [10] = target: T3, OCTN2 (organic cation/carnitine transporter 2); experiment: in vitro; settings: human, HRPE cells expressing OCTN2, probe carnitine (0.025 uM)
# Description: as §3
# [11] = target: T3, OCTN2 (organic cation/carnitine transporter 2); experiment: in vitro; settings: human, HRPE cells expressing OCTN2, probe carnitine (0.025 uM); remark: listed apart in the source
# Description: TP_TRANSPORTER: inhibition of Carnitine uptake (Carnitine: 0.025 uM, Cimetidine: 2000 uM) in OCTN2-expressing HRPE cells
# [12] = target: T2, OCTN2 (organic cation/carnitine transporter 2); experiment: TP_TRANSPORTER: inhibition of Carnitine uptake (Carnitine: 0.025 uM, Desipramine: 500 uM) in OCTN2-expressing HRPE cells; type: functional, cell-based; set-up: scale not given: the % may be the effect or the level left; settings: HRPE cells expressing OCTN2, probe carnitine (0.025 uM), read-out: Activity
# [13] = target: T1, Organic cation/carnitine transporter 2; experiment: TP_TRANSPORTER: inhibition of TEA uptake (TEA: 20 uM, Desipramine: 2500 uM) in OCTN2-expressing HRPE cells; type: functional, cell-based; settings: human
# [14] = target: T1, Organic cation/carnitine transporter 2; experiment: TP_TRANSPORTER: inhibition of TEA uptake (TEA: 20 uM, Guanidine: 2500 uM) in OCTN2-expressing HRPE cells; type: functional, cell-based; settings: human
# [15] = target: T1, Organic cation/carnitine transporter 2; experiment: TP_TRANSPORTER: inhibition of TEA uptake (TEA: 20 uM, Methanphetamine: 2500 uM) in OCTN2-expressing HRPE cells; type: functional, cell-based; settings: human
# [16] = target: T1, Organic cation/carnitine transporter 2; experiment: TP_TRANSPORTER: inhibition of TEA uptake (TEA: 20 uM, Norepinephrine: 2500 uM) in OCTN2-expressing HRPE cells; type: functional, cell-based; settings: human
# [17] = target: T1, Organic cation/carnitine transporter 2; experiment: TP_TRANSPORTER: inhibition of TEA uptake (TEA: 20 uM, Procainamide: 2500 uM) in OCTN2-expressing HRPE cells; type: functional, cell-based; settings: human
# [18] = target: T4, Organic cation/carnitine transporter 2; experiment: as §2; type: functional, cell-based
# [19] = target: T1, Organic cation/carnitine transporter 2; experiment: TP_TRANSPORTER: inhibition of TEA uptake (TEA: 20 uM, Serotonin: 2500 uM) in OCTN2-expressing HRPE cells; type: functional, cell-based; settings: human
# [20] = target: T1, Organic cation/carnitine transporter 2; experiment: TP_TRANSPORTER: inhibition of TEA uptake (TEA: 20 uM, THA: 2500 uM) in OCTN2-expressing HRPE cells; type: functional, cell-based; settings: human
# [21] = target: T1, Organic cation/carnitine transporter 2; experiment: TP_TRANSPORTER: inhibition of TEA uptake (TEA: 20 uM, TMA: 2500 uM) in OCTN2-expressing HRPE cells; type: functional, cell-based; settings: human
# [22] = target: T2, OCTN2 (organic cation/carnitine transporter 2); experiment: in vitro; settings: HRPE cells expressing OCTN2, probe carnitine (0.025 uM); remark: listed apart in the source
# Description: (§4) TP_TRANSPORTER: inhibition of Carnitine uptake (Carnitine: 0.025 uM, TEA: 2000 uM) in OCTN2-expressing HRPE cells
# [23] = target: T3, OCTN2 (organic cation/carnitine transporter 2); experiment: in vitro; settings: human, HRPE cells expressing OCTN2, probe carnitine (0.025 uM); remark: listed apart in the source
# Description: as §4
# [24] = substrate: C[N+](C)(C)CC(O)CC(=O)[O-]; experiment: as §2; type: functional, cell-based
# [25] = substrate: CC[N+](CC)(CC)CC; experiment: cells, lysate or membranes named
molecule,measurement,setting,value
CN1CC=C(c2ccccc2)CC1,Inhibition,[1],inhibitor [50-75 % inhibition]
same,activity at 2000 µM,[2],47%
same,activity at 2000 µM,[3],4%
C[n+]1ccc(-c2ccccc2)cc1,Inhibition,[4],inhibitor [50-75 % inhibition]
CC(=O)O[C@H](CC(=O)[O-])C[N+](C)(C)C [ACETYLCARNITINE],Activity,[5],substrate [+]
same,activity at 500 µM,[6],1%
CC(N)Cc1ccccc1 (stereo unspecified) [AMPHETAMINE],Inhibition,[7],inhibitor [20-30 % inhibition]
C[N+](C)(C)CC(=O)O [BETAINE],activity at 500 µM,[8],51%
C[N+](C)(C)CCO [CHOLINE],activity at 2000 µM,[9],82%
same,activity at 2000 µM,[10],24%
CN/C(=N/CCSCc1nc[nH]c1C)NC#N [CIMETIDINE],activity at 2000 µM,[11],29%
CNCCCN1c2ccccc2CCc2ccccc21 [DESIPRAMINE],activity at 500 µM,[12],0%
same,Inhibition,[13],inhibitor [90-95 % inhibition]
N=C(N)N [GUANIDINE],Activity,[14],is not an inhibitor [-]
CN[C@@H](C)Cc1ccccc1 [METHAMPHETAMINE],Inhibition,[15],inhibitor [20-30 % inhibition]
NC[C@H](O)c1ccc(O)c(O)c1 [NOREPINEPHRINE],Activity,[16],is not an inhibitor [-]
CCN(CC)CCNC(=O)c1ccc(N)cc1 [PROCAINAMIDE],Inhibition,[17],inhibitor [50-75 % inhibition]
CCC(=O)OC(CC(=O)[O-])C[N+](C)(C)C (stereo unspecified) [Propionyl-Carnitine],Activity,[18],substrate [+]
same,Activity,[5],substrate [+]
NCCc1c[nH]c2ccc(O)cc12 [SEROTONIN],Activity,[19],is not an inhibitor [-]
CCCCCC[N+](CCCCCC)(CCCCCC)CCCCCC [TETRAHEXYLAMMONIUM],Inhibition,[20],inhibitor [90-95 % inhibition]
C[N+](C)(C)C.[Cl-] [TETRAMETHYLAMMONIUM],Inhibition,[21],inhibitor [20-30 % inhibition]
CC[N+](CC)(CC)CC [TETRYLAMMONIUM],activity at 2000 µM,[22],40%
same,activity at 2000 µM,[23],4%
Organic cation/carnitine transporter 2 (Rattus norvegicus) (protein) MRDYDEVTAFLGEWGPFQRLIFFLLSASIIPNGFNGMSIVFLAGTPEHRCLVPHTVNLSSAWRNHSIPLETKDGRQVPQSCRRYRLATIANFSALGLEPGRDVDLEQLEQENCLDGWEYNKDVFLSTIVTEWDLVCKDDWKAPLTTSLFFVGVLMGSFISGQLSDRFGRKNVLFLTMGMQTGFSFLQLFSVNFEMFTVLFVLVGMGQISNYVAAFVLGTEILSKSIRIIFATLGVCIFYAFGFMVLPLFAYFIRDWRMLLLALTVPGVLCGALWWFIPESPRWLISQGRVKEAEVIIRKAAKFNGIVAPSTIFDPSELQDLNSKKPQSHHIYDLVRTRNIRIITIMSIILWLTISVGYFGLSLDTPNLHGDIYVNCFLLAAVEVPAYVLAWLLLQHLPRRYSISAALFLGGSVLLFIQLVPSELFYLSTALVMVGKFGITSAYSMVYVYTAELYPTVVRNMGVGVSSTASRLGSILSPYFVYLGAYDRFLPYILMGSLTILTAILTLFFPESFGAPLPDTIDQMLRVKGIKQWQIQSQTRTQKDGGESPTVLKSTAF,Km,[24],14.8 µM
same,Km,[25],63 µM

# Source: ChEMBL document CHEMBL2074461, “Functional characteristics and tissue distribution pattern of organic cation transporter 2 (OCTN2), an organic cation/carnitine transporter” (J Pharmacol Exp Ther, 1999)
